According to patent publication US20130102595A1 (Curis, Inc., priority 2011, published 2013):

How the values were obtained:
[1] = target: T1, mTor serine/threonine protein kinase (Homo sapiens, UniProt P42345); test: mTor kinase radioisotope assay; assay type: biochemical; conditions: 70 uM ATP, 40 minutes; read-out: m-TOR IC50
T1 construct: FLAG; made in house; host or cells: Baculovirus expression system in Sf21 cells
Experimental: (F) an In Vitro Assay which-Determines the Ability of a Test Compound to Inhibit mTor Serine/Threonine Protein Kinase.
The ability of compounds to inhibit mTor activity was assayed using standard radioisotope assay for kinase. Briefly, FLAG-tagged, recombinant full-length human mTor (GenBank accession No. NM_004958) was expressed using baculovirus expression system in Sf21 cells and purified using antibody affinity column. Purified enzyme was incubated with c-terminal fragment of p70S6K as it's substrate in the presence of ATP. p33 ATP tracers were included in the assay to monitor the enzyme activity. Final assay condition was with 50 mM HEPES pH 7.5, 1 mM EGTA, 0.01% Tween 20, 2 mg/ml substrate, 3 mM Manganese Chloride and 70 uM of ATP and was carried out at room temperature for 40 minutes. The reaction was then stopped by the addition of 3% phosphoric acid solution. 10 ul of the reaction was spotted onto a P30 filtermat and washed three times for 5 minutes in 75 mM phosphoric acid and once in methanol prior to drying and scintillation counting. Different concentrations of compounds were added to reaction to assess the activity of compounds to inhibit mTor kinase. IC50 was calculated using Prism software with sigmoidal dose-response curve fitting.

PI3Kα (p110α/p85α) = target: T2, PI3Kα (p110α/p85α) (Homo sapiens, UniProt P42336); test: PI3Kα ADP-Glo assay; assay type: biochemical; conditions: 20 μM PIP2, 10 μM ATP, 30 minutes
T2 construct: GST (N); made in house; host or cells: Baculovirus-infected Sf9 cells
T2 sequence (P42336 whole entry): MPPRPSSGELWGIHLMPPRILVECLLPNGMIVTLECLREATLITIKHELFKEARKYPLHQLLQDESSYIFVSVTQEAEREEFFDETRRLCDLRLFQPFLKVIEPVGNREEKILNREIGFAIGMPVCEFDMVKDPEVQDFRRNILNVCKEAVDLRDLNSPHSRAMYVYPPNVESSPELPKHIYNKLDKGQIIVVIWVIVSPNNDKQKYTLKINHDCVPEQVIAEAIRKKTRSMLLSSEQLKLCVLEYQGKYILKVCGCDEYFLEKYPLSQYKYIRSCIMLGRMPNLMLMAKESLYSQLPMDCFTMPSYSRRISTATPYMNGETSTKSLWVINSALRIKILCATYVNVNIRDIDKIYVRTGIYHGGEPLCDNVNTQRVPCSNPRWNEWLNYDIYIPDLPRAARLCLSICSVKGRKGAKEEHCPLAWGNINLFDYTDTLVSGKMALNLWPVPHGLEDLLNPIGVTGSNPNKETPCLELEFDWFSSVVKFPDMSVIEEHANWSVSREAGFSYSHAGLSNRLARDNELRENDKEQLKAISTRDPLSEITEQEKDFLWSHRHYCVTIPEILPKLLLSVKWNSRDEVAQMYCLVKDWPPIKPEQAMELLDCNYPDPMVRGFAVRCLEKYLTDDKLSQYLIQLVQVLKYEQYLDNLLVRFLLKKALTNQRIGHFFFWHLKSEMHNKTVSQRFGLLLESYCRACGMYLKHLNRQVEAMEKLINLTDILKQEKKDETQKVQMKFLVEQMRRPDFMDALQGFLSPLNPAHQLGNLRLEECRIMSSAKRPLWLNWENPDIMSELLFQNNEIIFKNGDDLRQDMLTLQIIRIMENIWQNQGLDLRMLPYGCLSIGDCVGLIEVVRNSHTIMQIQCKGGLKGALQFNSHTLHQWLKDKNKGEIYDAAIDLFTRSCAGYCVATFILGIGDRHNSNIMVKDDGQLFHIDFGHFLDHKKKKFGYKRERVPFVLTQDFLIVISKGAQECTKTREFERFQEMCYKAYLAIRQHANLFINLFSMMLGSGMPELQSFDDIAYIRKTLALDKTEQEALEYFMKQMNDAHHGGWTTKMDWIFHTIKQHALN
T2 sequence (P27986 whole entry partner): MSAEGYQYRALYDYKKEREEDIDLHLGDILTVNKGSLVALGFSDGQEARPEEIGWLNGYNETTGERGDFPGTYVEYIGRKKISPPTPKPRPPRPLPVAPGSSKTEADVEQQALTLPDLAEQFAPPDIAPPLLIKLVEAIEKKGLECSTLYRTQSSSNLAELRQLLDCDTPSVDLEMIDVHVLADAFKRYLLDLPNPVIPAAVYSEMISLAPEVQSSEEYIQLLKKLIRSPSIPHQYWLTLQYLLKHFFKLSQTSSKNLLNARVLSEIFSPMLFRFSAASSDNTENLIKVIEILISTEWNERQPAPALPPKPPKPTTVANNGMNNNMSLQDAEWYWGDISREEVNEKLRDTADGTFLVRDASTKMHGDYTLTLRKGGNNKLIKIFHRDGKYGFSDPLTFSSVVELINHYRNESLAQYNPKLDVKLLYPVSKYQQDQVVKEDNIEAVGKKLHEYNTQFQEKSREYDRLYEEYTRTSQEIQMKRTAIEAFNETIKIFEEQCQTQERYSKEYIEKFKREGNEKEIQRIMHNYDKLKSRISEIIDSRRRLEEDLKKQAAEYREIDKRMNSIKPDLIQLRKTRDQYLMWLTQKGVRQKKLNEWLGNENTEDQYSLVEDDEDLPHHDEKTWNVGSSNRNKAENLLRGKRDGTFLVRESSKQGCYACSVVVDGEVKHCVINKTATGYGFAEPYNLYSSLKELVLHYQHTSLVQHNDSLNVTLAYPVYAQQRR
Procedure, shortened: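 Luminescent ADP-Glo detection, after depletion of residual ATP, quantified ADP made by PI3Kα phosphorylating 20 μM PIP2 at 10 μM ATP. The kinase step ran 30 min at room temperature in HEPES pH 7.4 with MgCl2, DTT and orthovanadate, using baculovirus/Sf9-expressed full-length p110α/p85α complex.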

[2] = tested on: HDACs (HeLa cell nuclear extracts); test: HDAC enzymatic activity, Biomol Color de Lys system; assay type: biochemical; conditions: 1 hour, 25° C.
Procedure, shortened: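 IC50 from sigmoidal fit of developer-terminated fluorescence (ex 350-380/em 440-460 nm). Reaction: 1 h at room temperature (25 °C), HeLa nuclear extract as HDAC source, artificial substrate, buffer of 50 mM Tris/Cl pH 8.0 with 137 mM NaCl, 2.7 mM KCl and 1 mM MgCl2.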

| Structure (SMILES) | melting point | IC50 [1] | IC50 (PI3Kα (p110α/p85α)) | IC50 [2] |
| --- | --- | --- | --- | --- |
| O=C(CCCCCNCc1cc2nc(-c3cccc4[nH]ncc34)nc(N3CCOCC3)c2s1)NO [Compound 43, 6-((2-(1H-indazol-4-yl)-4-morpholinothieno[3,2-d]pyrimidin-6-yl)methylamino)-N-hydroxyhexanamide] | 128 to 130 °C | 1000 to 10000 nM | 1000 to 10000 nM | < 100 nM |
| CC(=O)NCc1ccc(-c2nc(N3CCOCC3)c3sc(CN(C)c4ncc(C(=O)NO)cn4)cc3n2)cc1 [Compound 136, 2-(((2-(4-(acetamidomethyl)phenyl)-4-morpholinothieno[3,2-d]pyrimidin-6-yl)methyl)(methyl)amino)-N-hydroxypyrimidine-5-carboxamide] | 178 to 180 °C | > 10000 nM | > 10000 nM |  |
| CN(Cc1cc2nc(-c3cccc(C(N)=O)c3)nc(N3CCOCC3)c2s1)c1ncc(C(=O)NO)cn1 [Compound 142, 2-(((2-(3-carbamoylphenyl)-4-morpholinothieno[3,2-d]pyrimidin-6-yl)methyl)(methyl)amino)-N-hydroxypyrimidine-5-carboxamide] |  | 100 to 1000 nM | 100 to 1000 nM | < 100 nM |
| CN(Cc1cc2nc(-c3cccc4c3CC(=O)N4)nc(N3CCOCC3)c2s1)c1ncc(C(=O)NO)cn1 [Compound 178] |  | > 10000 nM | > 10000 nM | < 100 nM |
| CN(Cc1cc2nc(-c3cccc4c3CNC4=O)nc(N3CCOCC3)c2s1)c1ncc(C(=O)NO)cn1 [Compound 181] |  | > 10000 nM | 1000 to 10000 nM | < 100 nM |
| CN(Cc1cc2nc(-c3ccc4c(c3)NC(=O)CO4)nc(N3CCOCC3)c2s1)c1ncc(C(=O)NO)cn1 [Compound 183] |  | > 10000 nM | > 10000 nM | < 100 nM |
| CN(Cc1cc2nc(-c3c[nH]c4ccccc34)nc(N3CCOCC3)c2s1)c1ncc(C(=O)NO)cn1 [Compound 184] |  | 100 to 1000 nM | 1000 to 10000 nM | < 100 nM |
| CC(=O)c1ccc(F)c(-c2nc(N3CCOCC3)c3sc(CN(C)c4ncc(C(=O)NO)cn4)cc3n2)c1 [Compound 301] |  | > 10000 nM | 1000 to 10000 nM | < 100 nM |
| Cc1ncc(-c2nc(N3CCOCC3)c3sc(CN(C)c4ncc(C(=O)NO)cn4)cc3n2)s1 [Compound 311] |  | > 10000 nM | 100 to 1000 nM | < 100 nM |
| Cn1cc(-c2nc(N3CCOCC3)c3sc(CN(CCO)c4ncc(C(=O)NO)cn4)cc3n2)cn1 [Compound 313] |  | > 10000 nM | 100 to 1000 nM | < 100 nM |
| CN(Cc1cc2nc(-c3cccc4[nH]c(=O)[nH]c34)nc(N3CCOCC3)c2s1)c1ncc(C(=O)NO)cn1 [Compound 314] |  | > 10000 nM | 100 to 1000 nM | < 100 nM |
| CS(=O)(=O)N1CCN(Cc2cc3nc(-c4ccc(OCCCCCC(=O)NO)cc4)nc(N4CCOCC4)c3s2)CC1 [Compound 320, N-Hydroxy-6-(4-(6-((4-(methylsulfonyl)piperazin-1-yl)methyl)-4-morpholinothieno[3,2-d]pyrimidin-2-yl)phenoxy)hexanamide] | 140 to 142 °C |  | 100 to 1000 nM | 100 to 1000 nM |
| CS(=O)(=O)N1CCN(Cc2cc3nc(-c4ccc(OCCCCCCC(=O)NO)cc4)nc(N4CCOCC4)c3s2)CC1 [Compound 321, N-Hydroxy-7-(4-(6-((4-(methylsulfonyl)piperazin-1-yl)methyl)-4-morpholinothieno[3,2-d]pyrimidin-2-yl)phenoxy)heptanamide] | 143 to 145 °C |  | 100 to 1000 nM | 100 to 1000 nM |

The next lines start with the values.

| melting point | IC50 [1] | IC50 (PI3Kα (p110α/p85α)) | IC50 [2] | Structure (SMILES) |
| --- | --- | --- | --- | --- |
| 170 to 172 °C | > 10000 nM | 100 to 1000 nM | < 100 nM | O=C(NO)c1cnc(N2CCC(CNCc3cc4nc(-c5cccc6[nH]ncc56)nc(N5CCOCC5)c4s3)CC2)nc1 [Compound 15, 2-(4-(((2-(1H-indazol-4-yl)-4-morpholinothieno[3,2-d]pyrimidin-6-yl)methylamino)methyl)piperidin-1-yl)-N-hydroxypyrimidine-5-carboxamide] |
| 174 to 175 °C | 1000 to 10000 nM | < 100 nM | 100 to 1000 nM | CN(Cc1cc2nc(-c3cccc4[nH]ncc34)nc(N3CCOCC3)c2s1)CC1CCN(c2ncc(C(=O)NO)cn2)CC1 [Compound 16, 2-(4-((((2-(1H-indazol-4-yl)-4-morpholinothieno[3,2-d]pyrimidin-6-yl)methyl)(methyl)amino)methyl)piperidin-1-yl)-N-hydroxypyrimidine-5-carboxamide] |
| 215 to 217 °C | 1000 to 10000 nM | < 100 nM | < 100 nM | CN(Cc1cc2nc(-c3cc(F)cc4[nH]ncc34)nc(N3CCOCC3)c2s1)c1ncc(C(=O)NO)cn1 [Compound 69, 2-(((2-(6-fluoro-1H-indazol-4-yl)-4-morpholinothieno[3,2-d]pyrimidin-6-yl)methyl)(methyl)amino)-N-hydroxypyrimidine-5-carboxamide] |
|  | 1000 to 10000 nM | < 100 nM | < 100 nM | CC(=O)OCCN(Cc1cc2nc(-c3cccc4[nH]ncc34)nc(N3CCOCC3)c2s1)c1ncc(C(=O)NO)cn1 [Compound 87] |
|  | 1000 to 10000 nM | < 100 nM | < 100 nM | COC(=O)CN(Cc1cc2nc(-c3cccc4[nH]ncc34)nc(N3CCOCC3)c2s1)c1ncc(C(=O)NO)cn1 [Compound 89] |
|  | 100 to 1000 nM | < 100 nM | < 100 nM | N#CCCN(Cc1cc2nc(-c3cccc4[nH]ncc34)nc(N3CCOCC3)c2s1)c1ncc(C(=O)NO)cn1 [Compound 99] |
| 115 to 118 °C | 100 to 1000 nM | 100 to 1000 nM | > 10000 nM | CN(CCCC(=O)NO)Cc1cc2nc(-c3cccc4[nH]ncc34)nc(N3CCOCC3)c2s1 [Compound 101, 4-(((2-(1H-indazol-4-yl)-4-morpholinothieno[3,2-d]pyrimidin-6-yl)methyl)(methyl)amino)-N-hydroxybutanamide] |
| 120 to 122 °C | 100 to 1000 nM | 100 to 1000 nM | 100 to 1000 nM | CN(CCCCC(=O)NO)Cc1cc2nc(-c3cccc4[nH]ncc34)nc(N3CCOCC3)c2s1 [Compound 102, 5-(((2-(1H-indazol-4-yl)-4-morpholinothieno[3,2-d]pyrimidin-6-yl)methyl)(methyl)amino)-N-hydroxypentanamide] |
| 160 to 164 °C | 100 to 1000 nM | < 100 nM | < 100 nM | CN(Cc1cc2nc(-c3cccnc3)nc(N3CCOCC3)c2s1)c1ncc(C(=O)NO)cn1 [Compound 109, N-hydroxy-2-(methyl((4-morpholino-2-(pyridin-3-yl)thieno[3,2-d]pyrimidin-6-yl)methyl)amino)pyrimidine-5-carboxamide] |
| 200 to 206 °C | 1000 to 10000 nM | < 100 nM | < 100 nM | CN(C)c1ncc(-c2nc(N3CCOCC3)c3sc(CN(C)c4ncc(C(=O)NO)cn4)cc3n2)cn1 [Compound 117, 2-(((2-(2-(dimethylamino)pyrimidin-5-yl)-4-morpholinothieno[3,2-d]pyrimidin-6-yl)methyl)(methyl)amino)-N-hydroxypyrimidine-5-carboxamide] |
| 153 to 156 °C | 1000 to 10000 nM | < 100 nM | < 100 nM | CCc1ncc(-c2nc(N3CCOCC3)c3sc(CN(C)c4ncc(C(=O)NO)cn4)cc3n2)cn1 [Compound 121, 2-(((2-(2-ethylpyrimidin-5-yl)-4-morpholinothieno[3,2-d]pyrimidin-6-yl)methyl)(methyl)amino)-N-hydroxypyrimidine-5-carboxamide] |
|  | > 10000 nM | < 100 nM | < 100 nM | COc1ccc(-c2nc(N3CCOCC3)c3sc(CN(CCO)c4ncc(C(=O)NO)cn4)cc3n2)cn1 [Compound 265] |
|  | 100 to 1000 nM | < 100 nM | < 100 nM | Nc1ccc(-c2nc(N3CCOCC3)c3sc(CN(CCO)c4ncc(C(=O)NO)cn4)cc3n2)cc1 [Compound 274] |
|  | > 10000 nM | < 100 nM | < 100 nM | CN(Cc1cc2nc(-c3ccc([N+](=O)[O-])c(O)c3)nc(N3CCOCC3)c2s1)c1ncc(C(=O)NO)cn1 [Compound 293, N-Hydroxy-2-(((2-(3-hydroxy-4-nitrophenyl)-4-morpholinothieno[3,2-d]pyrimidin-6-yl)methyl)(methyl)amino)pyrimidine-5-carboxamide] |
